Laboratory results taken from patent publication US6124351A, “Amino acid derivatives having a nitric oxide synthase inhibiting action” (priority 1994, dated 2000).
“Also recorded” adds a separate entry of the source. Structures can show the parent of a compound that is named as a salt. Where two headings read alike, the source gives them in different places.

Tests used:
iNOS [1] = conditions: cited from earlier work
iNOS [2] = target: T1, iNOS (Rattus norvegicus, UniProt Q06518); assay: Inhibition of iNOS, soluble fraction of lungs of LPS-treated rats; conversion of L-[3H] arginine to L-[3H] citrulline; type: biochemical
T1 construct: a soluble cytosolic fraction of the finally obtained supernate was used as the crude enzyme sample of iNOS; from tissue; host or cells: lungs of LPS-treated rats, 100,000×g soluble cytosolic fraction
Method: (§1) Compounds of the invention were evaluated for their inhibitory effect against NOS isoforms in comparison with the well known NOS inhibitors. The following were used as crude enzyme fractions of the respective NOS isoforms: a soluble fraction of the rat cerebral cortex for N-cNOS and a homogenate of cow pulmonary arterial endothelium cell (CPAE) for E-cNOS, whereas for iNOS, rats were administered lipopolysaccharide (LPS, 10 mg/kg, i.p.) and lungs were removed 6 h later to prepare soluble fractions.
The crude enzyme sample of iNOS was prepared by the following procedure. Rats were administered intraperitoneally with LPS (10 mg/kg) and, 6 h later, perfused in a transcardiac manner with physiological saline containing 10 U/ml of heparin; thereafter, lungs were removed. Subsequently, 5 volumes of 50 mM Tris-HCl containing 1 mM DTT (pH 7.4) was added and the mixture was homogenized for 3 min, followed by centrifugation of the homogenate at 1,000×g for 10 min. The resulting supernate was centrifuged at 100,000×g for 60 min and a soluble cytosolic fraction of the finally obtained supernate was used as the crude enzyme sample of iNOS.
The method of measuring NOS activity was basically the same as already reported by the present inventors and consisted of determining quantitatively the conversion of a substrate L-[^3 H] arginine to a reaction product L-[^3 H] citrulline [Nagafuji et al., in Brain Edema IX (Ito et al. eds.) 60, pp. 285-288, 1994, Acta Neurochir., Springer-Verlag].
The reaction solution consisted of 100 μM L-[^3 H] arginine, a prepared NOS enzyme (6-20 μg/ml protein), 1.25 mM CaCl2, 1 mM EDTA, 10 μg/ml calmodulin, 1 mM NADPH, 100 μM tetrahydrobiopterine, 10 μM FAD, 10 μM FMN and 50 mM Tris-HCl (pH 7.4), to which one of the compounds of the invention or one of the control compounds was added.
(§2) The reaction was started by addition of L-[^3 H] arginine and following incubation at 37° C. for 10 min, the reaction was terminated by addition of 2 ml of 50 mM Tris-HCl (pH 5.5) containing 1 mM EDTA and placing the mixture on ice. The reaction solution was passed through a cation-exchange resin column (Dowex AG50WX-8, Na^+ form, 3.2 ml) to separate the reaction product L-[^3 H] citrulline from the unreacted residual substrate L-[^3 H] arginine. The elute was combined with another elute resulting from the passage of distilled water (3 ml) through the column and put into a mini vial for recovery of L-[^3 H] citrulline. Thereafter, 5 ml of a scintillation fluid was added and the contained radioactivity was measured with a liquid scintillation counter to determine the amount of L-[^3 H] citrulline. The protein concentration of each crude enzyme sample was determined with a micro-assay kit of Biorad Co.
(§3) All data in Table 4 are expressed by mean ± standard error, with the number of cases indicated within parentheses.

N-cNOS = target: T2, N-cNOS (Rattus norvegicus, UniProt P29476); assay: biochemical; conditions: for IC50: N-cNOS, rat cerebral cortex, 100 μM L-[3H] arginine, 37° C., 10 min, pH 7.4, mean ± standard error
T2 construct: a soluble cytosolic fraction of the finally obtained supernate was used as the crude enzyme sample of N-cNOS; from tissue; host or cells: cerebral cortex of normal untreated male SD rats, 100,000×g soluble cytosolic fraction

E-cNOS = target: T3, E-cNOS (Bos taurus, UniProt P29473); assay: Inhibition of E-cNOS, homogenate of cow pulmonary arterial endothelium cell (CPAE); conversion of L-[3H] arginine to L-[3H] citrulline; type: biochemical
T3 construct: the mixture was homogenized for 3 min to yield the crude enzyme sample of E-cNOS; endogenous in cells; host or cells: CPAE (cow pulmonary arterial endothelium cells), whole homogenate
Method: as §1
The crude enzyme sample of E-cNOS was prepared by the following procedure. A cow pulmonary arterial endothelium cell (CPAE) was cultured in a MEM medium containing 20% of FBS. Several days later, the cells were detached from the flask using a solution of 0.25% trypsin containing 1 mM EDTA and after addition of 0.1 M phosphate-buffered saline (PBS; pH 7.4) diluted with physiological saline, centrifugation was conducted at 1,000 rpm for 5 min. The supernate was then discarded and upon addition of a suitable amount of PBS, centrifugation was performed at 1,000 rpm for 5 min to wash the cells. The same procedure was repeated using 50 mM Tris-HCl containing 1 mM DTT (pH 7.4) to wash the cells. The precipitating cells were added an adequate amount of 50 mM Tris-HCl containing 1 mM DTT (pH 7.4) and the mixture was homogenized for 3 min to yield the crude enzyme sample of E-cNOS.
as §2, §3

[3] = index of selectivity, N-cNOS vs iNOS
[4] = read-out: IC50 value iNOS (the concentration necessary to inhibit 50% activity), iNOS, LPS rat lung, 100 μM L-[3H] arginine, 37° C., 10 min, pH 7.4, mean ± standard error
[5] = iNOS, LPS rat lung, 100 μM L-[3H] arginine, 37° C., 10 min, pH 7.4, mean ± standard error
[6] = compared with existing NOS inhibitors, dihydrochloride
[7] = index of selectivity, N-cNOS vs E-cNOS
[8] = E-cNOS, CPAE homogenate, 100 μM L-[3H] arginine, 37° C., 10 min, pH 7.4, mean ± standard error

T1 sequence (Q06518 whole entry): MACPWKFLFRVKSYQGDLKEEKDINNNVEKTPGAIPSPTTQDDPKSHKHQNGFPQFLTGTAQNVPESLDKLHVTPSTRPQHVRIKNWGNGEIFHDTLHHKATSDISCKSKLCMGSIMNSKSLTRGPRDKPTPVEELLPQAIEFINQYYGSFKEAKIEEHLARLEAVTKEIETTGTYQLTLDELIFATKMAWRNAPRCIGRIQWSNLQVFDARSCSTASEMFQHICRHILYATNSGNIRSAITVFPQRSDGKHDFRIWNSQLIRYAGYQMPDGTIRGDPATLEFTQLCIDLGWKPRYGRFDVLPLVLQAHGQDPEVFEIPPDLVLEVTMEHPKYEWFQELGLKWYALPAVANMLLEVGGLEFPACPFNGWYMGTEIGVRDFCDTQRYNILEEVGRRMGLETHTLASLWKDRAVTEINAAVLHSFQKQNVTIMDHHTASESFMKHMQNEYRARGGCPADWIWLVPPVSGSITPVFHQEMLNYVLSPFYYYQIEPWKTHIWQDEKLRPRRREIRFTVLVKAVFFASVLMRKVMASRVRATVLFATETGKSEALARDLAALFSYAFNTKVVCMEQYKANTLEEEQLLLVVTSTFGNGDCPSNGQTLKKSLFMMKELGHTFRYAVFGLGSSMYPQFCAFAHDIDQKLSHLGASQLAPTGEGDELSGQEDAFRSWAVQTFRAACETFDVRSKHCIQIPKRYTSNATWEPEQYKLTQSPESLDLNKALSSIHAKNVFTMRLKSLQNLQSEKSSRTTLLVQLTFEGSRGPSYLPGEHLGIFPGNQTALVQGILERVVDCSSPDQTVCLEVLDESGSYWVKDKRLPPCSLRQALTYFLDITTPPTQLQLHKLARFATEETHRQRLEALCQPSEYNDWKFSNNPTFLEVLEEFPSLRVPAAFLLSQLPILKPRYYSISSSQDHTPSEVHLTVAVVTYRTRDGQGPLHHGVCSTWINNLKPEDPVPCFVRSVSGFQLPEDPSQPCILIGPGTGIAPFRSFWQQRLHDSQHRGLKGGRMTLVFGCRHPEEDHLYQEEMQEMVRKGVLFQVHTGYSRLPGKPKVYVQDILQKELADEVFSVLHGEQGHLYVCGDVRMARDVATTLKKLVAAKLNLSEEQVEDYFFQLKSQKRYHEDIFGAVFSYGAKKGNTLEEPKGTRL
T2 sequence (P29476 whole entry): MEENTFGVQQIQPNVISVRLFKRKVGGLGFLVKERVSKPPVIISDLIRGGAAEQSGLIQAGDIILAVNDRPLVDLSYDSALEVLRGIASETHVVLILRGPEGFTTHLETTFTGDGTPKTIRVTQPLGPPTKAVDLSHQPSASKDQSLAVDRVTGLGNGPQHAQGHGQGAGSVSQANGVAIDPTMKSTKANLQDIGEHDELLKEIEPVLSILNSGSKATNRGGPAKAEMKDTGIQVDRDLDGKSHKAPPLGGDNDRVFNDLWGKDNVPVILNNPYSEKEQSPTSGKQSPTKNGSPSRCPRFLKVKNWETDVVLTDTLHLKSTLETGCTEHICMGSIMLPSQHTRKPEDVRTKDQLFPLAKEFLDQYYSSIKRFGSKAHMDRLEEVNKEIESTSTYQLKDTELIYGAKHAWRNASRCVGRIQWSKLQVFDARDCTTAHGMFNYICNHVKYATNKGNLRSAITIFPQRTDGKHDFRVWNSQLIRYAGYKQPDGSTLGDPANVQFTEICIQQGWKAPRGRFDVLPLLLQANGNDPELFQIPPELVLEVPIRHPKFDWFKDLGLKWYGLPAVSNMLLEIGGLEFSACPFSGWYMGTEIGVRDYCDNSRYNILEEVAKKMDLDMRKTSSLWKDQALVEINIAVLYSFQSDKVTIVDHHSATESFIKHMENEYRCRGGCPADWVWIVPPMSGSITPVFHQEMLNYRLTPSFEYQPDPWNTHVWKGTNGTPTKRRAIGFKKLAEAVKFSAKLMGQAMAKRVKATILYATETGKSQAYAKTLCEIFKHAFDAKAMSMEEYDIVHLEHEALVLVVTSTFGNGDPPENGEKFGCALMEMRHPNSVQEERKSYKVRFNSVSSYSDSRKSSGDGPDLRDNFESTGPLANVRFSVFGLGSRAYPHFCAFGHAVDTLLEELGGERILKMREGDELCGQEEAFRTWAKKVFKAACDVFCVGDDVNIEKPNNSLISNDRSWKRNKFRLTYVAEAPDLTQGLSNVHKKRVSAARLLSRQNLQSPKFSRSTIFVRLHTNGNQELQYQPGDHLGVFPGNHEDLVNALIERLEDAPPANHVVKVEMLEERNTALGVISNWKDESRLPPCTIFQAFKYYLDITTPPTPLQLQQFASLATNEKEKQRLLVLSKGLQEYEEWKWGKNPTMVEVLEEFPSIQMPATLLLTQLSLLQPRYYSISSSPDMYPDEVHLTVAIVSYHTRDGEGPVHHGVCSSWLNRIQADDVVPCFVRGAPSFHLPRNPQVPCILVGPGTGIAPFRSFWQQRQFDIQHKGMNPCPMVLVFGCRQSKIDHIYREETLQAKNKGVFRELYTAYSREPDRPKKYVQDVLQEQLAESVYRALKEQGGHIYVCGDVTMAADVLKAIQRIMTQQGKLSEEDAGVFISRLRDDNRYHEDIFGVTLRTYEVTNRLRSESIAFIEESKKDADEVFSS
T3 sequence (P29473 2-1205): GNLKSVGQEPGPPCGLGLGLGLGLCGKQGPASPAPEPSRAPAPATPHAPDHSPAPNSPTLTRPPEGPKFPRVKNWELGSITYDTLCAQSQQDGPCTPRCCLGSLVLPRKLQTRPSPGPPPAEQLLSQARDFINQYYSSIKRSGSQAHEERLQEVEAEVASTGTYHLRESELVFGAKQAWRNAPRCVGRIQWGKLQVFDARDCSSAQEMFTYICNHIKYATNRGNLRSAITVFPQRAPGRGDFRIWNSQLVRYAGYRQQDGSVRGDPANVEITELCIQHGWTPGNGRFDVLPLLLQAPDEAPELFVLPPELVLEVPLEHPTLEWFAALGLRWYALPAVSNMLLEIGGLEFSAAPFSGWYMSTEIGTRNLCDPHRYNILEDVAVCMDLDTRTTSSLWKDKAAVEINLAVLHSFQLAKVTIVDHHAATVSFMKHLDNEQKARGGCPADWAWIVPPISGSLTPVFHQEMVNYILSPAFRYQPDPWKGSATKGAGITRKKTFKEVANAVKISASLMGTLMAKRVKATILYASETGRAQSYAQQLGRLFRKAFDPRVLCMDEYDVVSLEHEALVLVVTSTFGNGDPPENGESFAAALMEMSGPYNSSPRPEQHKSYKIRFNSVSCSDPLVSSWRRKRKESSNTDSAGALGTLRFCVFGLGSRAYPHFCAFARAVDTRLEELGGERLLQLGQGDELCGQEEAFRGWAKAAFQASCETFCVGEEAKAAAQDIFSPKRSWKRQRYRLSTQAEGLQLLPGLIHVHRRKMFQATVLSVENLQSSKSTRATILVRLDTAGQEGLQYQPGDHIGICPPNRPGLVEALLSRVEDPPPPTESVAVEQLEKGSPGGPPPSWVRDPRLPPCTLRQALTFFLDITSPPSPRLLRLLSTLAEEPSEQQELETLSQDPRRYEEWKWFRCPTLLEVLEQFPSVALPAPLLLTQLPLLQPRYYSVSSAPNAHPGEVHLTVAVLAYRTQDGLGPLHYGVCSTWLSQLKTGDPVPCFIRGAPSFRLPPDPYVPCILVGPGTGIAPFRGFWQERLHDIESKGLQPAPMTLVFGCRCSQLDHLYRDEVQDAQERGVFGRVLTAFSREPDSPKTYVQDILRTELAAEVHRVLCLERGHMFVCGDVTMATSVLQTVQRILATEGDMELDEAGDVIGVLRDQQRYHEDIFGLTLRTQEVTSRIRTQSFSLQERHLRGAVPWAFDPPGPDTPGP

Row | IC50 (iNOS [2]; [5]) [nM] | SMILES | Ratio of I50 values iNOS/N-cNOS (N-cNOS; [3]) | IC50 (N-cNOS) [nM] | Ratio of I50 values E-cNOS/N-cNOS (N-cNOS; [7]) | IC50 (E-cNOS; [8]) [nM] | also measured
1 |  | N=C(N)NN [AG, aminoguanidine, reference compound] | 1.3 |  |  |  | selectivity for iNOS vs E-cNOS (in words) (iNOS [1]; Griffith et al. 1993): selectivity for iNOS in comparison with the E-cNOS inhibiting action; inhibiting potency and selectivity for iNOS (in words) (iNOS [1]; as a therapeutic against hypotension in sepsis): insufficient to warrant its use as a therapeutic effective against hypotension in sepsis; IC50 (iNOS [2]): 27200 nM; Ratio of I50 values E-cNOS/N-cNOS (N-cNOS): > 4.9
2 |  | CCSC(=N)NCCC[C@H](N)C(=O)O [Example 2, δ-(S-ethylisothioureido)-L-norvaline] |  |  |  |  | IC50 (iNOS [2]; [4]): 6760 nM; N-cNOS inhibitory effect (in words) (N-cNOS; compared with existing NOS inhibitors): stronger N-cNOS inhibitory effect than the existing NOS inhibitors; also recorded: strong brain N-cNOS inhibitory effect; E-cNOS inhibitory effect (in words) (E-cNOS): weak E-cNOS inhibitory effect; IC50 (E-cNOS): 492 ± 315 nM
3 | 6930 | O=[N+]([O-])c1cccc2cn[nH]c12 [Example 7-NI, 7-nitroindazole, reference compound] |  |  |  |  | 
4 | 5410 | N[C@@H](CCCNC1=NCCS1)C(=O)O [Example 8, δ-(2,3-dehydrothiazolin-2-yl)amino-L-norvaline dihydrochloride] | 9.6 | 564 ± 284 | 5.9 | 3320 | 
5 | 4500 | CCCSC(=N)NCCC[C@H](N)C(=O)O [Example 12, δ-(S-(n-propyl)isothioureido)-L-norvaline] | 3.4 | 1340 | 9.3 | 12500 | 
6 | 12000 | C=CCNC(=N)NCCC[C@H](N)C(=O)O [L-ALA, N^G -allyl-L-arginine, reference compound] | 12.1 |  | 15.2 |  | 
7 |  | N=C(NCCC[C@H](N)C(=O)O)NC1CC1 [L-CPA, N^G -cyclopropyl-L-arginine, reference compound] |  |  |  | 1480 | IC50 (iNOS [2]; [4]): 7150 nM
8 |  | COC(=O)[C@@H](N)CCCNC(=N)N[N+](=O)[O-] [L-NAME, N^G -nitro-L-arginine methyl ester, reference compound] |  |  |  |  | IC50 (iNOS [2]; [4]): 13500 nM
9 | 458 ± 85.8 | CC(=N)NCCC[C@H](N)C(=O)O [L-NIO, N^G -iminoethyl-ornithine, reference compound] |  |  |  |  | 

Row | SMILES | IC50 (iNOS [2]; [5]) [nM] | Ratio of I50 values iNOS/N-cNOS (N-cNOS; [3]) | IC50 (N-cNOS) [nM] | Ratio of I50 values E-cNOS/N-cNOS (N-cNOS; [7]) | IC50 (E-cNOS; [8]) [nM] | also measured
10 | Cl.Cl.N=C(NCCC[C@H](N)C(=O)O)SCCF [Example 4, δ-(S-(2-fluoroethyl)-isothioureido)-L-norvaline dihydrochloride] | 501 | 47.7 | 10.5 ± 0.8 | 124.9 | 1310 | selectivity for N-cNOS or E-cNOS (in words) (N-cNOS; N-cNOS vs E-cNOS, compared with existing NOS inhibitors, dihydrochloride): more selective inhibitory effect on N-cNOS compared with the existing NOS inhibitors; also recorded: outstandingly high selective inhibitory effect on brain N-cNOS; N-cNOS inhibitory effect (in words) (N-cNOS; [6]): stronger N-cNOS inhibitory effect than the existing NOS inhibitors; also recorded: strong brain N-cNOS inhibitory effect; N-cNOS selective inhibitory effect (in words) (N-cNOS; over existing NOS inhibitors): by far superior N-cNOS selective inhibitory effect over the existing NOS inhibitors; E-cNOS inhibitory effect (in words) (E-cNOS): weak E-cNOS inhibitory effect
11 | C=CCSC(=N)NCCC[C@H](N)C(=O)O.Cl.Cl [Example 6, δ-(S-(2-propenyl)isothioureido)-L-norvaline dihydrochloride] | 298 | 2.6 | 113 ± 6 | 10.4 | 1180 | iNOS inhibitory effect (in words) (iNOS [2]; [6]): by far stronger iNOS inhibitory effect than the existing NOS inhibitors; also recorded: strong iNOS inhibitory effect; iNOS selective inhibitory effect (in words) (iNOS [2]; over existing NOS inhibitors): by far superior iNOS selective inhibitory effect over the existing NOS inhibitors; selectivity for N-cNOS or iNOS (in words) (N-cNOS; N-cNOS vs iNOS, compared with existing NOS inhibitors, dihydrochloride): extremely high selective inhibitory effect on iNOS
12 | CSC(=N)NCCCC[C@H](N)C(=O)O.Cl.Cl [Example 10, ε-(S-methylisothioureido)-L-norleucine dihydrochloride] | 10400 | 8.3 | 1260 | 5.1 | 6410 | 
